The subject of assay [1] is Aβ40. Kind of assay: In vitro BACE cell-based assay (Aβ40 sandwich ELISA, cells stably expressing APP). In a few lines: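 APP-stably-expressing cells, grown 24 h in DMEM/10% FBS, received 10-point compound doses starting at 100 μM or 10 μM (0.1% DMSO final). Secreted Aβ40 in supernatants measured by sandwich ELISA with time-resolved europium fluorescence; IC50 from percent inhibition versus concentration.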
On the technique in general: In an ELISA, binding on a coated surface is turned into a signal by an enzyme label.

The target in assay [2] is BACE (Homo sapiens, UniProt P56817). Kind of assay: In vitro enzymatic BACE FRET assay. The following applies: average IC50, enzyme assay; read-out: BACE 1 FRET assay. It is filed as biochemical. In a few lines:
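BACE (0.2 nM) preincubated 1 h with serially diluted inhibitors in 0.05 M acetate pH 4.2, 10% DMSO, 100 uM genapol. FRET peptide substrate (50 nM) added, 1 h incubation, then stopped with Tris to neutral pH. Fluorescence from cleavage read at […].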

Where [3] appears, read: Homo sapiens, HEK293, average IC50, cell assay, HEK cells.
[4] abbreviates: Homo sapiens, HEK293, average IC50, read-out: HEK cell assay.
The mark [5] stands for this setting: average IC50, read-out: HEK cell assay.

Read-outs that look alike come from different tables or passages of the source.

Drawing on patent US9012446B2, “Amino-oxazines and amino-dihydrothiazine compounds as beta-secretase modulators and methods of use” (Amgen Inc., priority 2010, dated 2015), this text covers IC50 for 49 molecules.

BACE, sequence (P56817 46-501, species assumed): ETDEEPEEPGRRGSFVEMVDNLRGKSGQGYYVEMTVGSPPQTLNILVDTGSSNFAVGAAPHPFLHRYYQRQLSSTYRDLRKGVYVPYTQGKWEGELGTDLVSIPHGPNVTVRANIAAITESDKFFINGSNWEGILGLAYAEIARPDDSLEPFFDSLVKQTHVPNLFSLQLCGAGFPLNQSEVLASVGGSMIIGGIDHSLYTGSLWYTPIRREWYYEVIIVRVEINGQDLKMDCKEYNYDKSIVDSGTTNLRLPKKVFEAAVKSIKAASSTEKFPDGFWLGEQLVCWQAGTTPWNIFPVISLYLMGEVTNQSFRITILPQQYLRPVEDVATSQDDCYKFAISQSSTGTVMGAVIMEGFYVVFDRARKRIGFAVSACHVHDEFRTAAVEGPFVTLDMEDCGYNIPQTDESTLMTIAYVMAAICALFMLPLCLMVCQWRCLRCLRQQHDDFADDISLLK

For the molecule `NC1=N[C@@]2(CCO1)c1cc(-c3cncc(F)c3)ccc1Oc1cnc(-c3cccnc3)cc12` [compound 140], the IC50 was 0.0034 µM in assay [1] (setting [3]) and 0.0108 µM in assay [2].
The like results for `NC1=N[C@@]2(CCO1)c1cc(-c3cccnc3F)ccc1Oc1cnc(-c3cncc(Cl)c3)cc12` [compound 141] were, in that order, 0.0225 µM and 0.0095 µM.
The like results for `NC1=N[C@@]2(CCO1)c1cc(-c3cncc(F)c3)ccc1Oc1cnc(-c3cncc(F)c3)cc12` [compound 142] were, in that order, 0.0042 µM and 0.0062 µM.
`NC1=N[C@@]2(CCO1)c1cc(-c3cncc(F)c3)ccc1Oc1cnc(C3=CCOCC3)cc12` [compound 143]: the values for the IC50 in assay [1] (setting [3]) and in assay [2] were 0.0037 µM and 0.0057 µM, respectively.
The matching figures for `NC1=N[C@@]2(CCO1)c1cc(-c3cccnc3F)ccc1Oc1cnc(C3CCOCC3)cc12` [compound 144]: 0.0354 µM and 0.0132 µM.
Regarding `NC1=N[C@]2(CCO1)c1cc(-c3cccnc3F)ccc1Oc1cnc(-c3cccnc3)cc12` [compound 147], the IC50 in assay [1] (setting [3]) and in assay [2] was 0.132 µM in each case.
`NC1=N[C@@]2(CCO1)c1cc(-c3cccnc3F)ccc1Oc1cnc(-c3cccnc3)cc12` [compound 148]: the values for the IC50 in assay [1] (setting [3]) and in assay [2] were 0.0041 µM and 0.0046 µM, respectively.
The matching figures for `NC1=NC2(CCO1)c1cc(-c3cccnc3)ccc1Oc1cnc(-c3cccnc3)cc12` (centres unmarked) [compound 150, 3,7-di-3-pyridinyl-5′,6′-dihydrospiro[chromeno[2,3-c]pyridine-5,4′-[1,3]oxazin]-2′-amine]: 0.0103 µM and 0.013 µM.
The like results for `NC1=NC2(CCO1)c1cc(-c3cccnc3)ccc1Oc1cnc(C3=CCOCC3)cc12` (centres unmarked) [compound 151] were, in that order, 0.0034 µM and 0.0073 µM.
The matching figures for `NC1=N[C@]2(CCO1)c1cc(-c3cccnc3F)ccc1Oc1cnc(-c3cncc(F)c3)cc12` [compound 152]: 0.108 µM and 0.238 µM.
For `NC1=N[C@]2(CCO1)c1cc(-c3cccnc3)ccc1Oc1c(F)cc(C3=CCOCC3)cc12` [compound 157], the IC50 in assay [1] (setting [3]) came out at 0.0781 µM; in assay [2], 0.784 µM.
On to `CC(C)(F)COc1cc(F)c2c(c1)[C@@]1(CCOC(N)=N1)c1cc(-c3cccnc3)ccc1O2` [compound 158], for which the IC50 in assay [1] (setting [3]) came out at 0.393 µM; in assay [2], 0.941 µM.
For the molecule `NC1=N[C@]2(CCO1)c1cc(-c3cccnc3)ccc1Oc1c(F)cc(C3=CCCOC3)cc12` [compound 159], the values for the IC50 in assay [1] (setting [3]) and in assay [2] were 0.0713 µM and 0.616 µM, respectively.
Consider `CC1(COc2cc(F)c3c(c2)[C@]2(CCOC(N)=N2)c2cc(-c4cccnc4)ccc2O3)COC1` [compound 160], for which the IC50 in assay [1] (setting [3]) came to 0.0059 µM; in assay [2], 0.0063 µM.
The matching figures for `CC1(COc2cc(F)c3c(c2)[C@@]2(CCOC(N)=N2)c2cc(-c4cccnc4)ccc2O3)COC1` [compound 161]: 0.333 µM and 2.78 µM.
Regarding `NC1=N[C@]2(CCO1)c1cc(-c3cccnc3F)ccc1Oc1c(F)cc(N3CCC(F)(F)CC3)cc12` [compound 162], the IC50 in assay [1] (setting [4]) turned out to be 3.02 µM; in assay [2], 0.958 µM.
The matching figures for `NC1=N[C@]2(CCO1)c1cc(-c3cccnc3F)ccc1Oc1c(F)cc(-c3ccncc3)cc12` [compound 165]: 0.248 µM and 0.553 µM.
Regarding `NC1=N[C@]2(CCO1)c1cc(-c3cccnc3F)ccc1Oc1c(F)cc(-c3cccnc3)cc12` [compound 167], the IC50 turned out to be 0.11 µM in assay [1] (setting [4]) and 0.147 µM in assay [2].
With `NC1=N[C@]2(CCO1)c1cc(-c3cccnc3F)ccc1Oc1c(F)cc(C3=CCOCC3)cc12` [compound 169], the figures for the IC50 in assay [1] (setting [4]) and in assay [2] were 3.4 µM and 3.07 µM, respectively.
With `CC1(COc2cc(F)c3c(c2)[C@@]2(CCOC(N)=N2)c2cc(-c4cccnc4F)ccc2O3)COC1` [compound 171], the figures for the IC50 in assay [1] (setting [4]) and in assay [2] were 0.245 µM and 0.525 µM, respectively.
`NC1=N[C@]2(CCO1)c1cc(-c3cccnc3F)ccc1Oc1c(F)cc(C3=CCCOC3)cc12` [compound 172]: the IC50 is 1.07 µM in assay [1] (setting [4]) and 1.19 µM in assay [2].
The like results for `COc1cc(F)c2c(c1)[C@]1(CCOC(N)=N1)c1cc(-c3cccnc3F)ccc1O2` [compound 175, (4S)-4′-fluoro-7′-(2-fluoro-3-pyridinyl)-2′-methoxy-5,6-dihydrospiro[1,3-oxazine-4,9′-xanthen]-2-amine] were, in that order, 0.093 µM and 0.0383 µM.
Regarding `NC1=N[C@]2(CCO1)c1cc(-c3cccnc3F)ccc1Oc1c(F)cc(N3CC[C@@H](F)C3)cc12` [compound 177], the IC50 in assay [1] (setting [4]) is 2.53 µM; in assay [2] it was 0.892 µM.
For `NC1=N[C@]2(CCO1)c1cc(-c3cccnc3F)ccc1Oc1c(F)cc(N3CCOCC3)cc12` [compound 179], the IC50 was 2.82 µM in assay [1] (setting [4]) and 5.19 µM in assay [2].
In the case of `CC1(COc2cc(F)c3c(c2)[C@]2(CCOC(N)=N2)c2cc(-c4cccnc4F)ccc2O3)COC1` [compound 180], the results for the IC50 in assay [1] (setting [4]) and in assay [2] were 0.0032 µM and 0.0023 µM, respectively.
For `CC(C)(F)COc1cc(F)c2c(c1)[C@@]1(CCOC(N)=N1)c1cc(-c3cccnc3F)ccc1O2` [compound 181], the IC50 in assay [1] (setting [4]) was determined as 1.16 µM; in assay [2], 1.37 µM.
For `NC1=N[C@]2(CCO1)c1cc(-c3cccnc3F)ccc1Oc1c(F)cc(-c3ccnc(F)c3)cc12` [compound 183], the IC50 in assay [1] (setting [5]) turned out to be 0.0154 µM; in assay [2], 0.007 µM.
As for `COc1cc(F)c2c(c1)[C@]1(CCSC(N)=N1)c1cc(-c3cccnc3F)ccc1O2` [compound 187], the results for the IC50 in assay [1] (setting [4]) and in assay [2] were 0.159 µM and 0.0299 µM, respectively.
The like results for `NC1=N[C@@]2(CCS1)c1cc(-c3cccnc3F)ccc1Oc1cnc(-c3ccnc(F)c3)cc12` [compound 188] were, in that order, 0.0111 µM and 0.0026 µM.
The like results for `NC1=N[C@]2(CCS1)c1cc(-c3cccnc3F)ccc1Oc1cnc(-c3ccnc(F)c3)cc12` [compound 189] were, in that order, 3.28 µM and 2.39 µM.
The like results for `NC1=N[C@]2(CCS1)c1cc(-c3cccnc3F)ccc1Oc1c(F)cc(C3=CCCOC3)cc12` [compound 190] were, in that order, 0.434 µM and 0.462 µM.
On to `NC1=N[C@]2(CCS1)c1cc(-c3cccnc3F)ccc1Oc1cnc(Cl)cc12` [compound 192], for which the IC50 turned out to be 5.61 µM in assay [1] (setting [4]) and 3.35 µM in assay [2].
The like results for `NC1=N[C@@]2(CCS1)c1cc(-c3cccnc3F)ccc1Oc1cnc(C3=CCOCC3)cc12` [compound 193] were, in that order, 0.0047 µM and 0.0033 µM.
The like results for `NC1=N[C@]2(CCS1)c1cc(-c3cccnc3F)ccc1Oc1cnc(C3=CCOCC3)cc12` [compound 194] were, in that order, 0.937 µM and 0.473 µM.
The matching figures for `NC1=N[C@]2(CCS1)c1cc(-c3cccnc3F)ccc1Oc1cnc(C3=CCCOC3)cc12` [compound 195]: 1.97 µM and 0.922 µM.
In the case of `NC1=N[C@]2(CCS1)c1cc(-c3cccnc3F)ccc1Oc1c(F)cc(C3=CCOCC3)cc12` [compound 196], the IC50 is 0.0831 µM in assay [1] (setting [4]) and 2.53 µM in assay [2].
The like results for `CC1(COc2cc(F)c3c(c2)[C@]2(CCSC(N)=N2)c2cc(-c4cccnc4F)ccc2O3)COC1` [compound 197] were, in that order, 0.0048 µM and 0.0025 µM.
Take `CC1(COc2cc(F)c3c(c2)[C@@]2(CCSC(N)=N2)c2cc(-c4cccnc4F)ccc2O3)COC1` [compound 198]: the IC50 worked out at 0.634 µM in assay [1] (setting [4]) and 0.563 µM in assay [2].
Regarding `NC1=N[C@@]2(CCS1)c1cc(-c3cccnc3F)ccc1Oc1cnc(Cl)cc12` [compound 199], the figures for the IC50 in assay [1] (setting [4]) and in assay [2] were 0.392 µM and 0.0908 µM, respectively.
As to `NC1=N[C@@]2(CCS1)c1cc(-c3cccnc3F)ccc1Oc1c(F)cc(C3=CCOCC3)cc12` [compound 200], the figures for the IC50 in assay [1] (setting [4]) and in assay [2] were 0.0123 µM and 0.0027 µM, respectively.
For `CC(C)(F)COc1cc(F)c2c(c1)[C@@]1(CCSC(N)=N1)c1cc(-c3cccnc3F)ccc1O2` [compound 202], the IC50 came out at 2.43 µM in assay [1] (setting [4]) and 0.863 µM in assay [2].
`NC1=N[C@@]2(CO[C@@H]1c1ccccc1)c1cc(-c3cccnc3F)ccc1Oc1cnc(Cl)cc12` [compound 208]: the IC50 in assay [1] (setting [5]) came to 0.134 µM; in assay [2], 0.0883 µM.
The like results for `C[C@@H]1OC[C@@]2(N=C1N)c1cc(-c3cccnc3F)ccc1Oc1cnc(Cl)cc12` [compound 210] were, in that order, 0.205 µM and 0.0908 µM.
In the case of `CC(C)C#Cc1cnc2c(c1)[C@]1(COCC(N)=N1)c1cc(-c3cccnc3F)ccc1O2` [compound 213], the values for the IC50 in assay [1] (setting [4]) and in assay [2] were 0.001 µM and 0.0006 µM, respectively.
As to `CC(C)(C)C#Cc1ccc2c(c1)[C@@]1(COCC(N)=N1)c1cc(C3=CCOCC3)cnc1O2` [compound 214], the IC50 in assay [1] (setting [4]) was 0.0061 µM; in assay [2], 0.0032 µM.
The like results for `NC1=N[C@@]2(COC1)c1cc(-c3cc(F)ccc3F)ccc1Oc1ncc(C3CCOCC3)cc12` [compound 215] were, in that order, 0.0032 µM and 0.0037 µM.
The matching figures for `NC1=N[C@@]2(COC1)c1cc(-c3cc(F)ccc3F)ccc1Oc1ncc(-c3cccnc3)cc12` [compound 216]: 0.0028 µM and 0.0023 µM.
`NC1=N[C@@]2(COC1)c1cc(-c3cc(F)ccc3F)ccc1Oc1ncc(-c3ccncc3)cc12` [compound 217]: the IC50 was determined as 0.0043 µM in assay [1] (setting [4]) and 0.0036 µM in assay [2].
Regarding `NC1=N[C@@]2(COC1)c1cc(-c3cc(F)ccc3F)ccc1Oc1ncc(C3=CCOCC3)cc12` [compound 218], the IC50 in assay [1] (setting [4]) came out at 0.0026 µM; in assay [2], 0.0013 µM.
